38 compounds from US7674823B2, “DNA-PK inhibitors” (Cancer Research Technology Limited, priority 2001, dated 2010) can be followed below.

Each structure is given as a SMILES string. Read-outs that look alike come from different tables or passages of the source.

Broadly, the melting point is the temperature, or range, at which the solid turns liquid. Broadly, the IC50 is the concentration needed to halve the response being measured.

The target of data set [1] is T1, Mammalian DNA-PK, isolated from Hela cell nuclear extract (Homo sapiens, UniProt P78527).
T1 construct: Mammalian DNA-PK, isolated from Hela cell nuclear extract; endogenous in cells; host or cells: HeLa cell nuclear extract (purified per Gell and Jackson 1999)
Description: DNA-PK inhibition assay (33P-ATP, filter binding). The class given is biochemical. Here is the method:
In order to assess the inhibitory action of the compounds against DNA-PK in vitro, the following assay was used to determine IC50 values.
The total assay volume per well was 40 μl.
After 10 minutes of incubation at 30° C. the reactions were initiated by the addition of Na-ATP (50 μM final), ^33p-γATP and a 30mer double stranded DNA oligonucleotide (10 ng/μl) in a volume of 10 μl. Designated positive and negative reaction wells were done in combination with compound wells (unknowns) in order to calculate % enzyme activities. The plates were then shaken for 2 minutes and incubated at 30° C. for 45 minutes.
Following the incubation, the reactions were quenched by the addition of 50 μl 30% acetic acid to each well. The plates were then shaken for 5 minutes and the contents of each plate (80 μl from each well) transferred over to a 96 well Polyfiltronics filtration plate, containing P81-phosphocellulose membrane (TRADE MARK)(Whatman, UK). The solutions were vacuum pumped through the membrane and each well membrane washed four times using 300 μl of 15% acetic acid. The well membranes were then air dried and 20 μl of scintillant was added to each well.
The plates were transferred to a TopCount NXT (TRADE MARK) (Packard, UK) for scintillation counting. Values recorded are counts per minute (cpm) following a 1 minute counting time for each well.
The enzyme activity for each compound is then calculated using the following equation: […]
These are determined over a range of different concentrations, normally from 10 μM down to 0.01 μM. Such IC50 values are used as comparative values to identify increased compound potencies.

Setting [2] is: IC50 of less than about 1 μM and/or % inhibition of more than about 50 at 1 μM, read-out: DNA-PK inhibition IC50 (particular efficacy).
The mark [3] stands for this setting: concentration at which 50% of the enzyme activity is inhibited, read-out: DNA-PK Inhibition IC50.

As to `O=c1cc(N2CCOCC2)cc(-c2ccccc2)o1` [Compound 1, 4-morpholin-4-yl-6-(phenyl)-pyran-2-one], the melting point was 161 to 162 °C.
On the same count and under the same terms, next, `CC(C)(C)c1ccc(-c2cc(N3CCOCC3)cc(=O)o2)cc1` [Compound 2, 4-morpholin-4-yl-6-(4-(t-butyl)phenyl)-pyran-2-one]: 230 to 232 °C; `COc1ccc(-c2cc(N3CCOCC3)cc(=O)o2)cc1` [Compound 3, 6-(4-methoxyphenyl)-4-morpholin-4-yl-pyran-2-one]: 212 to 213 °C.
On the same count and under the same terms, for `CC1CCC(C)N(c2cc(=O)n3ccc4ccccc4c3n2)C1` (stereo not drawn) [Compound 7, 2-(2,5-Dimethyl-piperidin-1-yl)pyrimido[2,1-a]isoquinolin-4-one] the value was 214 to 216 °C; for `O=c1cc(N2CCCC(CO)C2)nc2c3ccccc3ccn12` (stereo not drawn) [Compound 9, 2-(3-Hydroxymethyl-piperidin-1-yl)pyrimido[2,1-a]isoquinolin-4-one], 165 to 166 °C; for `O=c1cc(NCC2CCCO2)nc2c3ccccc3ccn12` (stereo not drawn) [Compound 10, 2-[(Tetrahydro-furan-2-ylmethyl)-amino]pyrimido[2,1-a]isoquinolin-4-one], 174 to 175 °C.
Consider `O=c1cc(N(CCO)CCO)nc2c3ccccc3ccn12` [Compound 11, 2-[Bis-(2-hydroxy-ethyl)-amino]pyrimido[2,1-a]isoquinolin-4-one], for which the melting point lay in the range of 211 to 212 °C.
The compound `CN(CC(O)c1ccccc1)c1cc(=O)n2ccc3ccccc3c2n1` (stereo not drawn) [Compound 16, 2-[(2-Hydroxy-2-phenyl-ethyl)-methyl-amino]-pyrimido[2,1-a]isoquinolin-4-one] gave a melting point of 195 to 196 °C.
`CN(CCC#N)c1cc(=O)n2ccc3ccccc3c2n1` [Compound 17, 3-[Methyl-(4-oxo-4H-pyrimido[2,1-a]isoquinolin-2-yl)-amino]-propionitrile] registered a melting point of 166 to 167 °C.
Turning to `O=c1cc(NCCc2cccs2)nc2c3ccccc3ccn12` [Compound 18, 2-(2-Thiophen-2-yl-ethylamino)-pyrimido[2,1-a]isoquinolin-4-one], the melting point lay in the range of 162 to 163 °C.
The same measure, in the same setting: next, `O=c1cc(NCC(O)CO)nc2c3ccccc3ccn12` (stereo not drawn) [Compound 19, 2-(2,3-Dihydroxypropylamino)-pyrimido[2,1-a]isoquinolin-4-one]: 215 to 216 °C; `CC(O)CNc1cc(=O)n2ccc3ccccc3c2n1` (stereo not drawn) [Compound 20, 2-(2-Hydroxypropylamino)-pyrimido[2,1-a]isoquinolin-4-one]: 199 to 200 °C; `O=c1cc(NCC(O)c2cccc(O)c2)nc2c3ccccc3ccn12` (stereo not drawn) [Compound 21, 2-[2-Hydroxy-2-(3-hydroxy-phenyl)-ethylamino]-pyrimido[2,1-a]isoquinolin-4-one]: 159 to 161 °C.
The same measure, in the same setting: next, `O=c1cc(NCCO)nc2c3ccccc3ccn12` [Compound 22, 2-(2-Hydroxy-ethylamino)-pyrimido[2,1-a]isoquinolin-4-one]: 218 to 221 °C; `O=c1cc(-c2ccccc2F)oc(N2CCOCC2)c1` [Compound 290, 6-(2-fluorophenyl)-2-(morpholin-4-yl)pyran-4-one]: 137 to 138 °C; `O=c1cc(N2CCCCC2)oc2c1ccc1ccccc12` [Compound 295, 2-piperidin-1-yl-benzo[h]chromen-4-one]: 205 to 207 °C.
The same measure, in the same setting: next, `O=c1cc(N2CCOCC2)oc2ccc(-c3ccccc3)cc12` [Compound 298, 2-(Morpholin-4-yl)-6-phenylchromen-4-one]: 218 to 220 °C; `Cc1cccc2c(=O)cc(N3CCOCC3)oc12` [Compound 302, 8-Methyl-2-morpholin-4-yl-chromen-4-one]: 148 °C; `COc1cccc2c(=O)cc(N3CCOCC3)oc12` [Compound 303, 8-Methoxy-2-morpholin-4-yl-chromen-4-one]: 165 °C.
`O=c1cc(N2CCOCC2)oc2c(OS(=O)(=O)C(F)(F)F)cccc12` [Compound 305, Trifluoro-methanesulfonic acid 2-morpholin-4-yl-4-oxo-4H-chromen-8-yl ester] registered a melting point of 177.8 to 178.9 °C.
On the same count and under the same terms, next, `O=c1cc(N2CCOCC2)oc2cc(OS(=O)(=O)C(F)(F)F)ccc12` [Compound 306, Trifluoro-methanesulfonic acid 2-morpholin-4-yl-4-oxo-4H-chromen-7-yl ester]: 143 to 145 °C; `O=c1cc(N2CCOCC2)oc2ccc(Br)cc12` [Compound 308, 6-Bromo-2-morpholin-4-yl-chromen-4-one]: 147 to 149 °C.
The compound `C[C@@H]1CN(c2cc(=O)c3ccc4ccccc4c3o2)C[C@H](C)O1` [Compound 309, 2-(2,6-cis-dimethyl-morpholin-4-yl)-benzo[h]chromen-4-one] yielded a melting point of 211 to 212.5 °C.
On the same count and under the same terms, next, `O=c1cc(N2CCNCC2)oc2c1ccc1ccccc12` [Compound 311, 2-piperazin-1-yl-benzo[h]chromen-4-one]: 208 to 209 °C.
As for `COC(=O)c1ccc(COc2ccc3c(=O)cc(N4CCOCC4)oc3c2)cc1` [Compound 339, Methyl 4-(2-(morpholin-4-yl)-4-oxo-4H-chromen-7-yloxymethyl)-benzoate], the half-maximal inhibitory concentration (IC50) in data set [1] (setting [2]) was less than 1000 nM.
For `COC(=O)c1cccc(COc2ccc3c(=O)cc(N4CCOCC4)oc3c2)c1` [Compound 340, Methyl 3-(2-(morpholin-4-yl)-4-oxo-4H-chromen-7-yloxymethyl)-benzoate], the 50% inhibitory concentration (IC50) in data set [1] (setting [2]) was less than 1000 nM.
Regarding `O=c1cc(N2CCOCC2)oc2cc(OCc3cccc(Cl)c3)ccc12` [Compound 341, 7-(3-Chlorobenzyloxy)-2-(morpholin-4-yl)-chromen-4-one], the figures for the 50% inhibitory concentration (IC50) in data set [1] (setting [2]) and in data set [1] (setting [3]) were less than 1000 nM and 650 nM, respectively.
`Cc1cccc(COc2ccc3c(=O)cc(N4CCOCC4)oc3c2)c1` [Compound 342, 7-(3-Methylbenzyloxy)-2-(morpholin-4-yl)-chromen-4-one]: the half-inhibitory concentration (IC50) in data set [1] (setting [3]) turned out to be 800 nM.
Same read-out and setting: for `O=c1cc(N2CCOCC2)oc2ccc(O)cc12` [Compound 343, 6-Hydroxy-2-(morpholin-4-yl)-chromen-4-one] the value was 700 nM.
Turning to `O=c1cc(N2CCOCC2)oc2cc(OCCS(=O)(=O)c3ccccc3)ccc12` [Compound 366], in data set [1] (setting [2]), the IC50 is less than 1000 nM.
For the compound `O=C1c2ccccc2C(=O)N1Cc1cccc(-c2ccc3c(=O)cc(N4CCOCC4)oc3c2)c1` [Compound 375], the IC50 in data set [1] (setting [2]) was less than 1000 nM.
As for `COc1ccc(-c2cccc3c(=O)cc(N4CCOCC4)oc23)cc1` [Compound 385], the 50% inhibitory concentration (IC50) in data set [1] is less than 1000 nM.
In the case of `O=c1cc(N2CCOCC2)oc2c(-c3cccc(-c4ccccc4)c3)cccc12` [Compound 389], the 50% inhibitory concentration (IC50) in data set [1] was less than 1000 nM.
Same read-out and setting: next, `O=c1cc(N2CCOCC2)oc2c(-c3ccc(CO)cc3)cccc12` [Compound 394]: less than 1000 nM.
As to `O=c1cc(N2CCOCC2)oc2c(-c3ccsc3)cccc12` [Compound 403], the IC50 in data set [1] (setting [2]) is less than 1000 nM.
Same read-out and setting: next, `O=c1cc(N2CCOCC2)oc2c(-c3cc4ccccc4s3)cccc12` [Compound 408]: less than 1000 nM; `CC(=O)c1ccc(-c2cccc3c(=O)cc(N4CCOCC4)oc23)s1` [Compound 409]: less than 1000 nM.
Still for that read-out and setting: next, `O=c1cc(N2CCOCC2)oc2c(-c3cccc4c3oc3ccccc34)cccc12` [Compound 410]: less than 1000 nM.
